# Results from the supplement of paper PMC10933113.
# Structures can show the parent of a compound that is named as a salt. ± gives the uncertainty stated by the source.
# How the values were obtained:
# [1] = test system: THP-1; test: efficacy of IL-8 induction relative to DMSO (% activity); higher = stronger induction; conditions: exposure time: 18 h
# [2] = test system: lysine peptide Ac-RFAAKAA-COOH; test: efficacy of lysine peptide change (negative = depletion) (% activity); higher = less depletion; conditions: incubation time: 24 h
# [3] = test system: cysteine peptide Ac-RFAACAA-COOH; test: efficacy of cysteine peptide change (negative = depletion) (% activity); higher = less depletion; conditions: incubation time: 24 h
# [4] = test system: KeratinoSens (HaCaT ARE-luciferase) cells; test: efficacy of ARE luciferase induction relative to DMSO (% activity over DMSO); higher = stronger induction; conditions: exposure time: 24 h
# [5] = test system: cysteine peptide Ac-RFAACAA-COOH; test: AC50 of cysteine peptide concentration-response (direction given by sign of efficacy); higher = less potent; conditions: incubation time: 24 h
# [6] = test system: KeratinoSens (HaCaT ARE-luciferase) cells; test: cytotoxicity AC50 (CellTiter-Fluor viability); higher = less cytotoxic; conditions: exposure time: 24 h
Structure (SMILES),efficacy of IL-8 induction [1],efficacy of lysine peptide change [2],efficacy of cysteine peptide change [3],efficacy of ARE luciferase induction [4],AC50 [5],cytotoxicity AC50 [6]
OCc1ccco1 [Furfuryl alcohol],0,-37.2 ± 5.8,-74.1 ± 7.2,37.8 ± 37,74.3 ± 13 µM,
ClC1=C(Cl)C(Cl)(Cl)C(Cl)=C1Cl [Hexachlorocyclopentadiene],83.1 ± 8.1,-11.3 ± 2.7,-137 ± 8.4,48.2 ± 5.1,30.4 ± 13 µM,
Oc1c(Br)cc(Br)c2cccnc12 [Broxyquinoline],55.7 ± 43,-14.3 ± 14,-69.9 ± 28,-33.3 ± 3,2.44 ± 1.8 µM,4 ± 0.46 µM
CCCCC1C(=O)N(c2ccccc2)N(c2ccc(O)cc2)C1=O (configuration not stated) [Oxyphenbutazone],31.1 ± 25,12.6 ± 12,-95.2 ± 6.3,221 ± 160,2.39 ± 0.7 µM,11.7 ± 0.79 µM
COP(=S)(Oc1cc(Cl)c(Br)cc1Cl)c1ccccc1 (configuration not stated) [Leptophos],33.4 ± 20,3.37 ± 19,-94.8 ± 3.7,21.4 ± 11,41.6 ± 5.3 µM,46.5 ± 3.1 µM
O=[N+]([O-])c1ccc(O/N=C/c2cc(Br)c(O)c(Br)c2)c([N+](=O)[O-])c1 [Bromofenoxim],0,62.9 ± 22,-97 ± 11,12.5 ± 12,8.35 ± 4.5 µM,34.2 ± 2.2 µM
Oc1ccc2cc(SSc3ccc4cc(O)ccc4c3)ccc2c1 [6-Hydroxy-2-naphthyl disulfide],52.2 ± 9.7,-144 ± 8,-97.3 ± 8,146 ± 38,0.36 ± 0.04 µM,
Oc1ccc(/C=C/c2cc(O)cc(O)c2)cc1 [Resveratrol],3.12 ± 5.4,-22.5 ± 15,-69.8 ± 10,29.2 ± 6.2,25.9 ± 11 µM,
NNCc1ccccc1 [BENZYLHYDRAZINE HYDROCHLORIDE],3.79 ± 6.6,,-43 ± 5.2,50.8 ± 24,35.6 ± 4.1 µM,
O=C1c2cccc(O)c2C(=O)c2c(O)cccc21 [Danthron],2.66 ± 9.7,-14.7 ± 8,-72.3 ± 21,15 ± 14,4.77 ± 1.4 µM,
CC(C)Nc1ccc(Nc2ccccc2)cc1 [N-Isopropyl-N'-phenyl-p-phenylenediamine],40.6 ± 19,-5.38 ± 9.3,-67.5 ± 20,-24.8 ± 11,2.82 ± 1 µM,20.5 ± 6.5 µM
Cc1occc1S [2-Methyl-3-furanthiol],14 ± 8.6,-108 ± 8.9,-117 ± 12,34.9 ± 23,10.6 ± 2.4 µM,
C=CC(C)(CCC=C(C)C)OC(=O)CC(C)C (configuration not stated) [Linalyl isovalerate],0,2.12 ± 19,-30.6 ± 8,4.06 ± 7,6.04 ± 4.1 µM,
O=C1c2cccc(O)c2C(=O)c2c(O)cc(CO)cc21 [Aloe-emodin],-5.38 ± 9.3,-80.7 ± 18,-75.7 ± 21,35.9 ± 24,1.33 ± 0.83 µM,
CC[C@@]1(O)C(=O)OCc2c1cc1n(c2=O)Cc2c-1nc1ccccc1c2/C=N/OC(C)(C)C [Gimatecan],24.2 ± 3.5,30.4 ± 65,-75.2 ± 18,57.7 ± 22,38.5 ± 5.3 µM,0.99 ± 0.6 µM
CC(C)(C)c1ccc(S)cc1 [4-tert-Butylbenzenethiol],16.3 ± 5.9,10.3 ± 18,-88.2,28 ± 17,44.7 µM,
CC1=C(/C=C/C(C)=C\C=C\C(C)=C\C(=O)O)C(C)(C)CCC1 [9-cis Retinoic acid],4.41 ± 7.6,-19.7 ± 2.9,-104 ± 23,47.6 ± 16,41.1 ± 17 µM,
"Nc1cc(Cl)c(O)c(Cl)c1 [4-Amino-2,6-dichlorophenol]",61.6 ± 34,-45.6 ± 7.5,-93.8 ± 6.2,99.2 ± 100,0.27 ± 0.14 µM,
Nc1cc(Cl)ccc1O [2-Amino-4-chlorophenol],14 ± 3,-22.2 ± 9,-103 ± 8.1,60.7 ± 16,2.44 ± 1.1 µM,48.3 ± 3.1 µM
"CC(C)=CCC/C(C)=C\CO [(2Z)-3,7-Dimethylocta-2,6-dien-1-ol]",3.59 ± 6.2,21.2 ± 7.3,-76.1 ± 14,19 ± 27,62.8 ± 38 µM,
O=C(CS)Nc1ccccc1 [Thioglycolic acid anilide],35.1 ± 9.2,28 ± 5.4,-109 ± 7.9,-15.9 ± 47,2.54 ± 0.48 µM,
COP(=S)(OC)Oc1nc(Cl)c(Cl)cc1Cl [Chlorpyrifos-methyl],0,32.7 ± 12,-104.3 ± 0.97,29.7 ± 29,6.5 ± 1.8 µM,
COc1ccccc1N [2-Methoxyaniline hydrochloride],0,-4.19 ± 7.3,-74 ± 18,68 ± 63,45.5 ± 10 µM,
CCN(CC)CCSC(=O)C(c1ccccc1)c1ccccc1 [Thiphenamil],8.63 ± 8,17.2 ± 18,-82.9 ± 1.6,63.3 ± 29,18.7 ± 3.4 µM,
"O=C1C=CC(=O)c2ccccc21 [1,4-NAPHTHOQUINONE*]",37.7 ± 15,-25.7 ± 2.1,-107 ± 5.1,-40.2 ± 8.4,0.53 ± 0.2 µM,8.95 ± 1 µM
